Experimental findings from paper PMC6368403, “Identification of a bilirubin receptor that may mediate a component of cholestatic itch” (eLife, 2019) are described below.

Where “and” joins values, the source holds several entries; their conditions need not be identical. Identical values can stand only once.

For assay [1], the system named is mice. Briefly: Cheek injection model: scratching bouts and wiping. The class given is in vivo, mouse. Conditions: injected into cheek: 1.3 mM deoxycholic acid, 4 mM LPA. How it is done: All applicable behavioral tests were performed and analysed with the experimenter blind to genotype. […] There were no significant differences in itch between male and female mice. […] On the day before the experiment, animals were placed in the test chamber for 30 min before being subjected to a series of three mock injections with 5 min break periods in between. On the day of the experiment, animals were first allowed to acclimatize to the test chamber for 10 min before injection. […] A bout of scratching was defined as a continuous scratching movement with either hindpaw directed at the area of the injection site. In the cheek injection model, a wipe was defined as a single forepaw stroking the site of the injection. Use of both forepaws on the face or cheek was considered as grooming behavior. […] For H1R block, 30 mg/kg of cetirizine HCl (pH 7.4) was given intraperitoneally thirty minutes prior to injection of bilirubin. Licking behavior was quantified in seconds and identified as the licking of the toes or footpad of the hind paw site of injection that was neither preceded nor followed by licking of any other portion of the body.

Assay [2] relates to DRG neurons. Briefly: Ca2+ imaging of cultured DRG neurons. It counts as cell-based, mouse. How it is done:
All cultured cells were maintained in DMEM supplemented with 10% FBS and 1% Penicillin/Streptomycin at 37°C, 5% CO2. […] Cells were imaged in calcium imaging buffer (CIB; 10 mM HEPES, 1.2 mM NaHCO3, 130 mM NaCl, 3 mM KCl, 2.5 mM CaCl2, 0.6 mM MgCl2, 20 mM glucose, and 20 mM sucrose at pH 7.4 and 290–300 mOsm). To monitor changes in intracellular [Ca^2+] ([Ca^2+]i), cells were loaded with either Fura 2-AM (HEK293 cells) or Fluo 4-AM (DRG neurons and mast cells) for 30 min in the dark at 37°C in CIB just prior to imaging. With Fura 2-AM, emission at 510 nm was monitored from excitation at both 340 nm and 380 nm. With Fluo 4-AM, emission at 520 nm was monitored from excitation at 488 nm. Cells were identified as responding if the intracellular [Ca^2+] rose by either 50% compared to baseline or 50% compared to the [Ca^2+]i change assayed during addition of 50 mM KCl (neurons only). Damaged, detached, high-baseline, and motion-activated cells were excluded from analysis.
DRGs were incubated with Fluo-4 AM 24 hr after dissociation (native genotype) or 48 hr after dissociation (virally transduced). Unless otherwise noted, cells were imaged for 20 seconds to establish a baseline before compounds were added. After 30 s, a 2 min wash was applied before addition of another substances. At the end of every imaging trial, 50 mM KCl was added as a positive control. […] For ruthenium red inhibitor experiments, neurons were incubated with 10 µM ruthenium red for 5 min prior to imaging. Percentage activated was determined as earlier described.
DRG neurons from all spinal levels were collected in cold DH10 media (90% Dulbecco’s modified Eagle’s medium (DMEM)/F-12, 10% FBS, penicillin (100 U/mL), and streptomycin (100 μg/mL)). DRGs were digested with a dispase (5 mg/ml)/collagenase type I (1 mg/ml) enzyme mixture at 37°C for 45 min. After trituration, cells were spun at 300 g and re-suspended in DH10 before being plated on glass coverslips coated with poly-D-lysine (0.5 mg/ml) and laminin (10 μg/ml, Invitrogen). DRGs were cultured with DH10 supplemented with 50 ng/mL NGF at 37°C.

Assay [3] deals with T1, MRGPRC11 (Mus musculus, UniProt Q8CIP3).
T1 construct: expressed in transfected cells
T1 sequence (Q8CIP3 1-322): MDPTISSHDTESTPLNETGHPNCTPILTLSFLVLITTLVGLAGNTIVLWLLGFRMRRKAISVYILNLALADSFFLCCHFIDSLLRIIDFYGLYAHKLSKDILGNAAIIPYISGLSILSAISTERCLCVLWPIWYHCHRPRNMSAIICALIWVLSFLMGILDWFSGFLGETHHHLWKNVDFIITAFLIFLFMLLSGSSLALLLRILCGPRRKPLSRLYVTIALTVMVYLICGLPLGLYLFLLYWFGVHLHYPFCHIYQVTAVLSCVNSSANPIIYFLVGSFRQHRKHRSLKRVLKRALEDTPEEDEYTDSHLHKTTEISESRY
Briefly: Ca2+ imaging and concentration-Ca2+ response in HEK293 cells expressing MRGPRC11. It counts as cell-based. The following applies: three replicates, Fig 2-N. As for the experimental part:
All cultured cells were maintained in DMEM supplemented with 10% FBS and 1% Penicillin/Streptomycin at 37°C, 5% CO2. All data included were generated from cells tested for mycoplasma and found to be negative. Cells were imaged in calcium imaging buffer (CIB; 10 mM HEPES, 1.2 mM NaHCO3, 130 mM NaCl, 3 mM KCl, 2.5 mM CaCl2, 0.6 mM MgCl2, 20 mM glucose, and 20 mM sucrose at pH 7.4 and 290–300 mOsm). To monitor changes in intracellular [Ca^2+] ([Ca^2+]i), cells were loaded with either Fura 2-AM (HEK293 cells) or Fluo 4-AM (DRG neurons and mast cells) for 30 min in the dark at 37°C in CIB just prior to imaging. With Fura 2-AM, emission at 510 nm was monitored from excitation at both 340 nm and 380 nm. With Fluo 4-AM, emission at 520 nm was monitored from excitation at 488 nm. Cells were identified as responding if the intracellular [Ca^2+] rose by either 50% compared to baseline or 50% compared to the [Ca^2+]i change assayed during addition of 50 mM KCl (neurons only). Damaged, detached, high-baseline, and motion-activated cells were excluded from analysis.
In initial screens, HEK293 cells stably expressing the murine G-protein alpha-subunit Gα15, a unique Gα protein that non-selectively couples a large variety of GPCRs to phospholipase C ^30, were plated on poly-D-lysine-coated coverslips and transiently transfected with constructs encoding the MRGRPR of interest. 12–24 hr later, cells were loaded with the Fura 2-AM. Unless otherwise specified, compounds were perfused into the imaging chamber for approximately thirty seconds after a baseline period was established. Response was then monitored at 5 s intervals for an additional 60 s.
HEK293 cells stably expressing either MRGPRA1, MRGPRX4, and MRGRPC11 were seeded in poly-D-lysine-coated 96-well plates at 10,000 cells/well. Cells were loaded with Fura 2–AM, washed twice, and maintained in CIB. Haem metabolites were freshly dissolved in DMSO in dim light and then diluted into a buffer comprised of 20 mM Tris and 150 mM NaCl at pH 8.8. Potential changes in pH were evaluated prior to each experiment. EC50 values were determined from dose-responses performed in triplicate, repeated 2–4 times. To determine potential antagonism by QWF against bilirubin, cells were treated with varying doses of QWF for 1 min in CIB prior to application of agonist.
HEK293 stable cell lines expressing GFP-tagged MRGPRA3, MRGPRC11, MRGPRD, MRGPRX1, and MRGPRX2 were generated in previously described reports ([Liu et al., 2009]; [Liu et al., 2012]; [McNeil et al., 2015]). Briefly, plasmids containing the receptor of interest were transfected into HEK cells using Lipofectamine 3000. After 3 days, cells were then selected using 0.5 mg/mL G418. After 3 weeks, monoclonal colonies were established and each the highest expressing clones were identified. For this study, Mrgpra1 and MRGPRX4 were inserted into pEGFP-N1 and transfected into HEK293 cells. MRGPR-positive cells were selected using 0.5 mg/mL G418 for three weeks, after which GFP-positive cells were sorted by FACS and monoclonally expanded. Two lines expressing similar levels of MRGPRA1 and MRGPRX4, as measured by GFP fluorescence, were selected for study.

The target of assay [4] is T1, MRGPRC11. Briefly: Microscale thermophoresis binding to MRGPRC11. The following applies: mean of n=3, Fig 2-O. How it is done: Binding isotherms for MRGPRA1, MRGPRX4, and MRGRPC11 towards various ligands were determined by microscale thermophoresis with the NanoTemper monolith NT.115 instrument ([Duhr and Braun, 2006]). Ligands were pre-incubated with 10 µM of the GFP-tagged receptor of interest for 5 min at room temperature in binding buffer (20 mM Tris and 150 mM NaCl at pH 8.8). Receptors were crudely purified as a membrane fraction from cells stably expressing the receptor ([Vasavda et al., 2017]). Haem metabolites were freshly dissolved in 0.1 M NaOH in dim light and then diluted into assay buffer. Lyophilized BAM8-22 was dissolved in binding buffer. The pH of each ligand was evaluated prior to incubation with a receptor. Samples were loaded into NT.115 Hydrophobic-Treated Capillaries from NanoTemper. Microscale thermophoretic experiments were executed using 20% LED power and 15% MST power. KDs were calculated using the law of mass action with data from three independent experiments. Binding between bilirubin and receptors was evaluated purely thermophoretically, whereas binding between BAM8-22 and MRGPRC11 was evaluated by T-Jump. Samples with dramatic deviations in initial fluorescence were excluded.
In general terms: Microscale thermophoresis detects binding through changes in fluorescence in a small temperature gradient.

Regarding `C[C@H](CCC(=O)O)[C@H]1CC[C@H]2[C@@H]3CC[C@@H]4C[C@H](O)CC[C@]4(C)[C@H]3C[C@H](O)[C@]12C` [deoxycholic acid, reference compound], the “Scratching in WT versus Mrgpr-cluster KO animals” value in assay [1] was “equivalent degrees of scratching in WT and Mrgpr-cluster KO animals”.
In the case of `N.N.N.N.N.N.N.N.N.N.N.N.N.N.[Cl-].[Cl-].[Cl-].[Cl-].[Cl-].[Cl-].[O-2].[O-2].[Ru+3].[Ru+3].[Ru+4]` [ruthenium red, reference compound], in assay [2] (10 µM ruthenium red, 50 µM bilirubin), the “Effect on activation of sensory neurons by bilirubin” value was “prevented bilirubin from activating sensory neurons”. Moreover, the “Percent activated neurons by 50 µM bilirubin” value in assay [2] (WT neurons incubated with 10 µM ruthenium red (Fig 4G)) stood at 0.73%.
In the case of BAM8-22 [reference compound], the “Ca2+ response (concentration-Ca2+ response curve), replicate values” is 1.675 (2×) and 1.799 in assay [3] ([Ligand] 1.95313e-7 M); 1.633 and 1.596 and 1.826 in assay [3] ([Ligand] 3.90625e-7 M); 1.6619 and 1.688 and 1.837 in assay [3] ([Ligand] 7.8125e-7 M); 1.91 and 1.851 and 1.839 in assay [3] ([Ligand] 1.5625e-6 M); 2.508 and 1.957 and 1.844 in assay [3] ([Ligand] 3.125e-6 M); 2.578 and 3.436 and 2.313 in assay [3] ([Ligand] 6.25e-6 M). Further, the “Ca2+ response (concentration-Ca2+ response curve), replicate values” is 4.631 and 2.839 and 3.888 in assay [3] ([Ligand] 1.25e-5 M); 3.332 and 3.664 and 3.933 in assay [3] ([Ligand] 2.5e-5 M). The “microscale thermophoresis response (binding isotherm), mean” value is listed as 0.2221 in assay [4] ([Ligand] 4.88e-8 M); 0.7996 in assay [4] ([Ligand] 9.77e-8 M); 0.1618 in assay [4] ([Ligand] 1.953e-7 M); -0.3098 in assay [4] ([Ligand] 3.906e-7 M); -0.7916 in assay [4] ([Ligand] 7.813e-7 M); -0.6624 in assay [4] ([Ligand] 1.5625e-6 M). Moreover, the “microscale thermophoresis response (binding isotherm), mean” value is -0.9001 in assay [4] ([Ligand] 3.125e-6 M); -0.5948 in assay [4] ([Ligand] 6.25e-6 M); -2.488 in assay [4] ([Ligand] 1.25e-5 M); -2.079 in assay [4] ([Ligand] 2.5e-5 M); -2.779 in assay [4] ([Ligand] 5e-5 M); -3.797 in assay [4] ([Ligand] 0.0001 M).
Turning to “lysophosphatidic acid [LPA, reference compound]”, the “Scratching in WT versus Mrgpr-cluster KO animals” value in assay [1] was “equivalent degrees of scratching in WT and Mrgpr-cluster KO animals”.
